# Results: patent US7884083B2, “Immunomodulatory compositions, methods of making, and methods of use thereof” (Dynavax Technologies Corporation, priority 2002, dated 2011)
# Assays:
# [1] = dodecyl spacer measured as dialcohol precursor; cited from earlier work
# [2] = test system: human peripheral blood lymphocytes (PBMCs); assay: hPBMC assay: IFN-γ and IFN-α production by human PBMCs (ELISA); format: cell-based; settings: for IFN-γ/α-enhancing activity in comparison to PMXB or CLN: in words, Table 10 experiment; for immunomodulatory activity in the hPBMC assay: result in words
# [3] = test system: plasmacytoind dendritic cells (PDCs) of human PBMCs; assay: Intracellular staining and FACS analysis of IFN-α production from PDCs; format: cell-based; settings: double-staining cells as percentage of total PBMCs, 20 μg/mL oligonucleotide, 100 μg/mL PMXB, six hours
# Procedure: Intracellular staining assays and FACS analysis were used to examine IFN-α production from the plasmacytoind dendritic cells (PDCs) of human PBMCs. […] For these assays, the IMC or -ISS and the polymyxin were added separately to the PBMC cell culture which contained human serum albumin. […] After the six hours, the cells were stained with a fluorescently labeled PDC marker, anti-BCDA-2 labeled with FITC, and with anti-IFN-α labeled with PE. FACS analysis of the labeled cells was performed.
# [4] = hydrophobic/lipophilic balance value; cited from earlier work
# [5] = Table 3, Donor 1, PMXB 100 μg/ml, AMTB 10 μg/ml, serum containing medium
# [6] = Table 3, Donor 2, PMXB 100 μg/ml, AMTB 10 μg/ml, serum containing medium
# [7] = Table 3, Mean, PMXB 100 μg/ml, AMTB 10 μg/ml, serum containing medium
# [8] = Donor 28212, Controls, 20 μg/ml oligonucleotide, 100 μg/ml polymyxin
# [9] = Donor 28213, Controls, 20 μg/ml oligonucleotide, 100 μg/ml polymyxin
# [10] = Donor 28232, no Time given, 20 μg/ml oligonucleotide, 100 μg/ml polymyxin
# [11] = Donor 28233, no Time given, 20 μg/ml oligonucleotide, 100 μg/ml polymyxin
# [12] = Donor # 20, 20 μg/ml oligonucleotide, 100 μg/ml PMXB, 24 hours
# [13] = Donor # 37, 20 μg/ml oligonucleotide, 100 μg/ml PMXB, 24 hours
# [14] = Donor # 75, 20 μg/ml oligonucleotide, 100 μg/ml PMXB, 24 hours
# [15] = Donor # 86, 20 μg/ml oligonucleotide, 100 μg/ml PMXB, 24 hours
# [16] = Donor # 87, 20 μg/ml oligonucleotide, 100 μg/ml PMXB, 24 hours
# [17] = Donor # 88, 20 μg/ml oligonucleotide, 100 μg/ml PMXB, 24 hours
# [18] = Donor # 89, 20 μg/ml oligonucleotide, 100 μg/ml PMXB, 24 hours
# [19] = Donor # 90, 20 μg/ml oligonucleotide, 100 μg/ml PMXB, 24 hours
# [20] = Donor # 91, 20 μg/ml oligonucleotide, 100 μg/ml PMXB, 24 hours
# [21] = Donor # 95, 20 μg/ml oligonucleotide, 100 μg/ml PMXB, 24 hours
# [22] = Donor # 96, 20 μg/ml oligonucleotide, 100 μg/ml PMXB, 24 hours
# [23] = Donor # 97, 20 μg/ml oligonucleotide, 100 μg/ml PMXB, 24 hours
# [24] = Mean (Table 4), Controls, 20 μg/ml oligonucleotide, 100 μg/ml polymyxin
# [25] = Mean (Table 6), no Time given, 20 μg/ml oligonucleotide, 100 μg/ml polymyxin
# [26] = Mean of donors (Table 2), 20 μg/ml oligonucleotide, 100 μg/ml PMXB, 24 hours
# [27] = Table 9, Mean, 20 μg/ml oligonucleotide, 100 μg/ml polymyxin
# [28] = Table 9, donor 149, 20 μg/ml oligonucleotide, 100 μg/ml polymyxin
# [29] = Table 9, donor 208, 20 μg/ml oligonucleotide, 100 μg/ml polymyxin
# [30] = Donor 198, no Time given, 20 μg/ml oligonucleotide
# [31] = Donor 199, no Time given, 20 μg/ml oligonucleotide
# [32] = Donor # 9, 20 μg/ml oligonucleotide, 100 μg/ml PMXB, 24 hours
# [33] = Donor # 94, 20 μg/ml oligonucleotide, 100 μg/ml PMXB, 24 hours
# [34] = Mean (Table 5), no Time given, 20 μg/ml oligonucleotide
# [35] = Table 10, donor 1, 20 μg/ml oligonucleotide, 100 μg/ml polymyxin derivative added separately, 24 hours
# [36] = Table 10, donor 2, 20 μg/ml oligonucleotide, 100 μg/ml polymyxin derivative added separately, 24 hours
# [37] = Table 10, donor 3, 20 μg/ml oligonucleotide, 100 μg/ml polymyxin derivative added separately, 24 hours
# [38] = Table 10, donor 4, 20 μg/ml oligonucleotide, 100 μg/ml polymyxin derivative added separately, 24 hours
# [39] = Table 10, donor 5, 20 μg/ml oligonucleotide, 100 μg/ml polymyxin derivative added separately, 24 hours
# [40] = Table 10, donor 6, 20 μg/ml oligonucleotide, 100 μg/ml polymyxin derivative added separately, 24 hours
# [41] = Table 10, mean of 6 donors, 20 μg/ml oligonucleotide, 100 μg/ml polymyxin derivative added separately, 24 hours
compound,measurement,setting,value
"OCCCCCCCCCCCCO [1,12-dihydroxydodecane]",solubility,[1],< 5 mg/mL
polymyxin B nonapeptide [PMXB-9],IFN-γ/α-enhancing activity in comparison to PMXB or CLN,[2],substantially reduced
"C[C@@H]1[C@H](O)[C@@H](C)/C=C/C=C/C=C/C=C/C=C/C=C/C=C/[C@H](O[C@@H]2O[C@H](C)[C@@H](O)[C@H](N)[C@@H]2O)C[C@@H]2O[C@](O)(C[C@@H](O)C[C@@H](O)[C@H](O)CC[C@@H](O)C[C@@H](O)CC(=O)O[C@H]1C)C[C@H](O)[C@H]2C(=O)O [AMTB, amphotericin B]",IFN-α,[2]; [5],0 pg/mL
same,IFN-γ,[2]; [5],0 pg/mL
same,IFN-α,[2]; [6],0 pg/mL
same,IFN-γ,[2]; [6],0 pg/mL
same,IFN-α,[2]; [7],0 pg/mL
same,IFN-γ,[2]; [7],0 pg/mL
same,immunomodulatory activity in the hPBMC assay,[2],no activity on its own
"5′-TGCTTGCAAGCTTGCAAGCA-3′ (listed as DNA, chemistry not given here) [−ISS SEQ ID NO: 38, reference compound]",BCDA-2/IFN-α d.p. %,[3]; donor 1,0.00%
same,BCDA-2/IFN-α d.p. %,[3]; donor 2,0.00%
same,BCDA-2/IFN-α d.p. %,[3]; mean,0.00%
Polymyxin B [PMXB],IFN-α,[2]; [8],268 pg/mL
same,IFN-γ,[2]; [8],5 pg/mL
same,IFN-α,[2]; [9],213 pg/mL
same,IFN-γ,[2]; [9],4 pg/mL
same,IFN-Υ,[2]; [10],8 pg/mL
same,IFN-α,[2]; [10],16 pg/mL
same,IFN-Υ,[2]; [11],7 pg/mL
same,IFN-α,[2]; [11],84 pg/mL
same,IFN-γ,[2]; [12],20 pg/mL
same,IFN-α,[2]; [13],0 pg/mL
same,IFN-γ,[2]; [13],228 pg/mL
same,IFN-γ,[2]; [14],6 pg/mL
same,IFN-α,[2]; [15],353 pg/mL
same,IFN-γ,[2]; [15],23 pg/mL
same,IFN-α,[2]; [16],326 pg/mL
same,IFN-γ,[2]; [16],33 pg/mL
same,IFN-α,[2]; [17],33 pg/mL
same,IFN-γ,[2]; [17],112 pg/mL
same,IFN-α,[2]; [18],9 pg/mL
same,IFN-γ,[2]; [18],3 pg/mL
same,IFN-α,[2]; [19],0 pg/mL
same,IFN-γ,[2]; [19],0 pg/mL
same,IFN-α,[2]; [20],0 pg/mL
same,IFN-γ,[2]; [20],47 pg/mL
same,IFN-α,[2]; [21],0 pg/mL
same,IFN-γ,[2]; [21],17 pg/mL
same,IFN-γ,[2]; [22],55 pg/mL
same,IFN-γ,[2]; [23],21 pg/mL
same,IFN-α,[2]; [24],241 pg/mL
same,IFN-γ,[2]; [24],5 pg/mL
same,IFN-Υ,[2]; [25],7 pg/mL
same,IFN-α,[2]; [25],50 pg/mL
same,IFN-α,[2]; [26],90 pg/mL
same,IFN-γ,[2]; [26],47 pg/mL
same,IFN-α,[2]; [5],1 pg/mL
same,IFN-γ,[2]; [5],23 pg/mL
same,IFN-α,[2]; [6],0 pg/mL
same,IFN-γ,[2]; [6],6 pg/mL
same,IFN-α,[2]; [7],0 pg/mL
same,IFN-γ,[2]; [7],15 pg/mL
same,IFN-Υ,[2]; [27],127 pg/mL
same,IFN-α,[2]; [27],32 pg/mL
same,IFN-Υ,[2]; [28],195 pg/mL
same,IFN-α,[2]; [28],32 pg/mL
same,IFN-Υ,"[2]; Table 9, donor 206, 20 μg/ml oligonucleotide, 100 μg/ml polymyxin",14 pg/mL
same,IFN-Υ,[2]; [29],171 pg/mL
same,IFN-α,[2]; [29],32 pg/mL
same,IFN-α,"[2]; Table 9, donor 209, 20 μg/ml oligonucleotide, 100 μg/ml polymyxin",32 pg/mL
same,immunomodulatory activity in the hPBMC assay,[2],no immunomodulatory activity on its own
"5′-TGACTGTGAACCTTAGAGATGA-3′ (DNA, all phosphorothioate, methylation of C not given here) [−ISS]",IFN-α,[2]; [30],151 pg/mL
same,IFN-γ,[2]; [30],5 pg/mL
same,IFN-α,[2]; [31],279 pg/mL
same,IFN-γ,[2]; [31],18 pg/mL
same,IFN-α,[2]; [8],225 pg/mL
same,IFN-γ,[2]; [8],5 pg/mL
same,IFN-α,[2]; [9],156 pg/mL
same,IFN-γ,[2]; [9],7 pg/mL
same,IFN-α,[2]; [32],0 pg/mL
same,IFN-γ,[2]; [32],0 pg/mL
same,IFN-γ,[2]; [12],4 pg/mL
same,IFN-α,[2]; [13],0 pg/mL
same,IFN-γ,[2]; [13],5 pg/mL
same,IFN-γ,[2]; [14],1 pg/mL
same,IFN-α,[2]; [15],15 pg/mL
same,IFN-γ,[2]; [15],12 pg/mL
same,IFN-α,[2]; [16],0 pg/mL
same,IFN-γ,[2]; [16],12 pg/mL
same,IFN-α,[2]; [17],19 pg/mL
same,IFN-γ,[2]; [17],70 pg/mL
same,IFN-α,[2]; [18],17 pg/mL
same,IFN-γ,[2]; [18],7 pg/mL
same,IFN-α,[2]; [19],0 pg/mL
same,IFN-γ,[2]; [19],0 pg/mL
same,IFN-α,[2]; [20],0 pg/mL
same,IFN-γ,[2]; [20],30 pg/mL
same,IFN-α,[2]; [33],0 pg/mL
same,IFN-γ,[2]; [33],0 pg/mL
same,IFN-α,[2]; [21],0 pg/mL
same,IFN-γ,[2]; [21],4 pg/mL
same,IFN-γ,[2]; [22],9 pg/mL
same,IFN-γ,[2]; [23],5 pg/mL
same,IFN-α,[2]; [24],191 pg/mL
same,IFN-γ,[2]; [24],6 pg/mL
same,IFN-α,[2]; [34],215 pg/mL
same,IFN-γ,[2]; [34],12 pg/mL
same,IFN-α,[2]; [26],5 pg/mL
same,IFN-γ,[2]; [26],11 pg/mL
same,IFN-α,[2]; [5],3 pg/mL
same,IFN-γ,[2]; [5],1 pg/mL
same,IFN-α,[2]; [6],0 pg/mL
same,IFN-γ,[2]; [6],0 pg/mL
same,IFN-α,[2]; [7],1 pg/mL
same,IFN-γ,[2]; [7],0 pg/mL
same,IFN-α,[2]; [35],52 pg/mL
same,IFN-γ,[2]; [35],2 pg/mL
same,IFN-α,[2]; [36],52 pg/mL
same,IFN-γ,[2]; [36],2 pg/mL
same,IFN-α,[2]; [37],52 pg/mL
same,IFN-γ,[2]; [37],2 pg/mL
same,IFN-α,[2]; [38],52 pg/mL
same,IFN-γ,[2]; [38],2 pg/mL
same,IFN-α,[2]; [39],26 pg/mL
same,IFN-γ,[2]; [39],10 pg/mL
same,IFN-α,[2]; [40],26 pg/mL
same,IFN-γ,[2]; [40],2 pg/mL
same,IFN-α,[2]; [41],43 pg/mL
same,IFN-γ,[2]; [41],3 pg/mL
colistin methanesulfonate [CMS],IFN-γ/α-enhancing activity in comparison to PMXB or CLN,[2],substantially reduced
polyethylene glycol sorbitan monooleate,HLB,[4],15.4
5′-TCGTCGAACGTTCGAGATGAT-3′ [SEQ ID NO: 39],BCDA-2/IFN-α d.p. %,[3]; donor 1,0.08%
same,BCDA-2/IFN-α d.p. %,[3]; donor 2,0.14%
same,BCDA-2/IFN-α d.p. %,[3]; mean,0.11%
polyoxyethylene(20) sorbitan trioleate [Tween 85],HLB,[4],11
same,IFN-Υ,[2]; [10],15 pg/mL
same,IFN-α,[2]; [10],66 pg/mL
same,IFN-Υ,[2]; [11],6 pg/mL
same,IFN-α,[2]; [11],55 pg/mL
same,IFN-Υ,[2]; [25],11 pg/mL
same,IFN-α,[2]; [25],60 pg/mL
